Here are results for 3 compounds from ChEMBL document CHEMBL5038620, “Discovery of a First-in-Class Inhibitor of the Histone Methyltransferase SETD2 Suitable for Preclinical Studies” (ACS Med Chem Lett, 2021).

Each structure is given as a SMILES string.

Data set [1] can be described thus: Apparent permeability across apical to basal membrane in human Caco-2 cells measured after 2 hrs by LC-MS/MS analysis. It is filed as ADME, cell-based. A general note: Caco-2 monolayers are a common model of the intestinal barrier.
A short description of data set [2]: Clearance in CD-1 mouse at 1 mg/kg, iv by LC-MS/MS analysis. The note with it: in vivo. Type of data set: ADME, organism-based.
The nature of data set [3]: Volume of distribution in CD-1 mouse at 1 mg/kg, iv by LC-MS/MS analysis. It is filed as ADME, organism-based. Conditions: in vivo.
Data set [4] can be described thus: Terminal half life in CD-1 mouse at 1 mg/kg, iv by LC-MS/MS analysis. It is filed as ADME, organism-based. The note with it: in vivo, read-out: beta t1/2 (converted).
The nature of data set [5]: Stability in mouse hepatocytes assessed as intrinsic clearance measured upto 60 minutes by LC/MS/MS analysis. Conditions: read-out: CLH. It is filed as ADME, cell-based, Hepatocyte.
Data set [6] can be described thus: Stability in human hepatocytes assessed as intrinsic clearance measured upto 120 minutes by LC/MS/MS analysis. Type of data set: ADME, cell-based, Hepatocyte. The note with it: time >=60 min, read-out: CLH.

As usually defined, the Papp A→B is the apparent permeability from the apical to the basolateral side of a cell layer. As a reminder, the clearance is the volume of plasma or blood freed of the substance per unit of time. A low value points to a low capacity for elimination. For orientation: Vd means a proportionality between amount in the body and measured concentration, not a real space. Low values mean little distribution into tissue, high ones wide distribution into tissue. Take `Cc1ccc(F)c2cc(C(=O)N[C@@H]3CCC[C@H](N4CC[C@H](N(C)S(C)(=O)=O)C4)C3)[nH]c12`: the apical-to-basolateral permeability (Papp A→B) at 2 h in data set [1] is 3.2 ×10⁻⁶ cm/s. Moreover, the clearance in data set [2] amounted to 24.2 mL/min/kg. Further, the Vd in data set [3] was determined as 1.04 L/kg. Moreover, the half-life in data set [4] is 42 min.
Consider `CC.Cc1ccc(F)c2cc(C(=O)N[C@@H]3CCC[C@H](N4CC[C@@H](N(C)S(C)(=O)=O)C4)C3)[nH]c12`, for which the CLint scaled is 235 mL/min/kg in data set [5] and 21.1 mL/min/kg in data set [6].
In data set [2], `CC(=O)N(C)C1CCN(c2cc(F)cc(NC(=O)c3cc4c(F)ccc(C)c4[nH]3)c2)C1` (centres undefined) had a clearance of 24.2 mL/min/kg. In data set [3], this compound showed a Vd of 1.04 L/kg. For the same compound, in data set [4], the half-life is 42 min.
